Reference: paper PMC9635472, “Design, synthesis, and biological evaluation of novel ciprofloxacin derivatives as potential anticancer agents targeting topoisomerase II enzyme” (Journal of Enzyme Inhibition and Medicinal Chemistry, 2022)

Tests used:
[1] = system: active caspase-3; assay: Active caspase-3 ELISA in T-24 cells; assay type: cell-based, human; conditions: 6 at 5.68 μM, 8a at 3.36 μM; for Caspase-3 conc. (pg/ml* ± SD): means of three experiments
Protocol: The level of the apoptotic marker caspase-3 was measured using The Invitrogen Caspase-3 (active) Human ELISA Kit. The procedure of the used kit was done according to the manufacturer’s instructions.
Caspase-3 (a key effector enzyme) plays an important role in apoptosis since its activation leads to catalysing specific enzymes responsible for DNA fragmentation, which leads to cell death. Apoptosis induction in T-24 cells by compounds 6 and 8a was investigated via caspase 3, compared to doxorubicin as a reference drug.

[2] = target: T1, human DNA Topo II (Homo sapiens, UniProt P11388); assay: In vitro DNA Topo II-mediated relaxation assay (supercoiled pBR322); assay type: biochemical; conditions: for IC50: means of three experiments, read-out: Topo II IC50 (µM*±SD); for inhibition at 0.1 µM / inhibition at 1 µM / inhibition at 10 µM / inhibition at 100 µM: recombinant Topo II relaxation; for inhibition at 0.1 µM: compound at 0.1 μM, read-out: Percentage of inhibition of Topo II, 0.1 μM; for inhibition at 1 µM: compound at 1 μM, read-out: Percentage of inhibition of Topo II, 1 μM; for inhibition at 10 µM: compound at 10 μM, read-out: Percentage of inhibition of Topo II, 10 μM; for inhibition at 100 µM: compound at 100 μM, read-out: Percentage of inhibition of Topo II, 100 μM
T1 construct: purchased USB Corp., USA
T1 sequence (P11388 whole entry): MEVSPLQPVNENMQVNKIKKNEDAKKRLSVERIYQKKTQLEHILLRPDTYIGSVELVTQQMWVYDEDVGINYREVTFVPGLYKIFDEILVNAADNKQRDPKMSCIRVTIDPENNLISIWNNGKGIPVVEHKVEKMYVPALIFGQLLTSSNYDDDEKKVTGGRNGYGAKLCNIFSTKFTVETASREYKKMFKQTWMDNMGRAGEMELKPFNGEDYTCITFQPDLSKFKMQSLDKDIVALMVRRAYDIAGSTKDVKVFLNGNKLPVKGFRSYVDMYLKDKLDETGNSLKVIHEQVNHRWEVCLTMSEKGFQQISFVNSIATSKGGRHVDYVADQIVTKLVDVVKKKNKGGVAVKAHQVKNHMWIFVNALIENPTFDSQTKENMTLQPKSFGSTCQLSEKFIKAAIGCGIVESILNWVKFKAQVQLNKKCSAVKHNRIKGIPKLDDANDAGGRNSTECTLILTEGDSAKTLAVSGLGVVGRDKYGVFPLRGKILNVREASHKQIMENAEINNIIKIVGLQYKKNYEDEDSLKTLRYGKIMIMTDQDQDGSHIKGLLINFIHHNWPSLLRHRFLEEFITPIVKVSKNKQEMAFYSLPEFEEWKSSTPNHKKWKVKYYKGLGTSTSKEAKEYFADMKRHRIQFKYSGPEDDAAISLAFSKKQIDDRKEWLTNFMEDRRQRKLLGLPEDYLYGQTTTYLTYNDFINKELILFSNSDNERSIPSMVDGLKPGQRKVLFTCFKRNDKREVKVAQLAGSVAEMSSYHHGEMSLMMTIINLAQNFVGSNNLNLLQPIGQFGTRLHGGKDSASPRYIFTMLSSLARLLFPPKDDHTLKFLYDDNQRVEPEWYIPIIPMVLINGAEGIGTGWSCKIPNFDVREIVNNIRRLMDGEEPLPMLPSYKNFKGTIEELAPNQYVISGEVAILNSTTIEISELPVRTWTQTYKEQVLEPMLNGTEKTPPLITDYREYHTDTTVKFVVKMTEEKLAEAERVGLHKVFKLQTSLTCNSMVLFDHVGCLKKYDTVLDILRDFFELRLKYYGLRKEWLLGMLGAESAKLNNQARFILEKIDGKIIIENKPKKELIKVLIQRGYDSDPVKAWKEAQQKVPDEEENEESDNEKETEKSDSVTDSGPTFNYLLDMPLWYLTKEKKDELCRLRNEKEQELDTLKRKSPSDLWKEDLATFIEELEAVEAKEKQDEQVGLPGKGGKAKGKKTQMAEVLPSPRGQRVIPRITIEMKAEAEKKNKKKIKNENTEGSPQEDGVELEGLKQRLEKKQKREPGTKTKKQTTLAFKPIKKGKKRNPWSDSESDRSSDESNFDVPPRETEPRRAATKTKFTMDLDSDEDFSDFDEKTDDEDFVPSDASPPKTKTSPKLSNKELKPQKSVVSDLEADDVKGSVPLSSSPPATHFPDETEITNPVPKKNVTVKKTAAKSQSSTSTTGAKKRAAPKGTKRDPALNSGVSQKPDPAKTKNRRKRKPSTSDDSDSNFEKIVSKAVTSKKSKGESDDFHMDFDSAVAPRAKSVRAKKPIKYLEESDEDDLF
Protocol: DNA Topo II inhibitory activities of the targeted compounds were measured as follows. A mixture of 100 ng of supercoiled pBR322 plasmid DNA (Fermentas, USA) and 2 units of human DNA Topo II (USB Corp., USA) was incubated with and without the prepared compounds in the assay buffer (10 µM Tris-HCl pH 7.9) containing 50 µM NaCl, 4 µM MgCl2, 1 µM EDTA, 1 µM ATP, and 15 mg/ml bovine serum albumin for 30 min at 37 °C. The reaction in a final volume of 10 µl was terminated by the addition of 4 µl of 6 µM EDTA. DNA samples were then electrophoresed on 1% agarose gel containing 0.5 µg/ml ethidium bromide in gel and buffer at high voltage (100–250 v) until the dye front has migrated about 4–6 cm down the gel. with a running buffer of TAE Tris-acetate– EDTA (TAE). Gels were stained for 15 min in water. DNA bands were visualised by transillumination with UV light and quantitated using AlphaI-maker TM (Alpha Innotech Corporation).
Well-known Topo II inhibitor doxorubicin was used as a positive control. The reaction products of Topo II relaxation assays were analysed by electrophoretic mobility and developed in ethidium bromide in the presence of UV light. The inhibitory activities were evaluated at 4 concentrations of 100, 10, 1, and 0.1 μM for all compounds as shown in (Figure 6). Topo II inhibitory activities of the tested compounds are summarised in (Table 2).

[3] = system: T-24 cells; assay: Cell cycle analysis (propidium iodide flow cytometry), T-24 cells; assay type: cell-based, human; conditions: for phase of cell cycle arrest: T-24 cancer cells
Protocol: The cell cycle was done using a propidium iodide flow cytometry kit (Abcam, ab139418) according to the manufacturer’s instructions. […] After treatment, the cells were washed twice with ice-cold phosphate buffer saline, then centrifuged and fixed using ice-cold 66% (v/v) ethanol, washed with phosphate buffer saline re-suspended with 0.10 mg/ml, and stained with 200 µl propidium iodide. Cells were analysed by flow cytometry. The cell cycle distributions were calculated using cell–quest software (Bectopn Dickinson).
While the accumulation of the cells in the S phase might result from the cell cycle arrest of T-24 cells in the S phase.

[4] = system: human prostate carcinoma (PC-3) cell line; assay: MTT cell viability assay, PC-3 cells; assay type: cell-based; conditions: prostate cancer cell line PC-3, treatment for 24 h (table title), means of three experiments, read-out: IC50 (μM* ± SD) PC-3
Protocol: Human bladder cancer (T-24) and human prostate carcinoma (PC-3) cell lines were obtained from American Type Culture Collection (ATCC; Manassas, VA USA). Cells were maintained in Dulbecco’s modified Eagle medium with 10% foetal bovine serum at 37 °C and 5% CO2. All the operations were carried out under strict aseptic conditions. The culture medium was removed to a centrifuge tube containing 9.0 ml complete culture medium and spanned at approximately 125 × g for 5 to 7 min. The cell layer was rinsed with 0.25% (w/v) trypsin- […] EDTA solution by which all traces of serum-containing inhibitor were removed. Trypsin EDTA solution 2.0 to 3.0 ml was added to a flask and cells were monitored under an inverted microscope until the cell layer was dispersed (usually within 5–15 min). A complete growth medium was added (6.0–8.0 ml), and cells were aspirated by gentle pipetting. The cell pellet was suspended with the recommended complete medium and dispensed into a 75 cm^2 culture flask. The culture vessel containing the complete growth medium was placed in the incubator for 24 h to at 37 °C. The cells were treated with different concentrations (0.39, 1.60, 6.25, 25, and 100 μg/ml) of each of the test compounds or doxorubicin, […], then the plates were examined under the inverted microscope and finally the MTT assay was carried out.
Anti-cancer activity of the newly synthesised compounds was evaluated in vitro against both T-24 and PC-3 cell lines according to the MTT method. Cells were seeded into 96-well plates (flat bottom) at a density of 10 000 cells/well for 24 h. The vial of MTT to be used was reconstituted with 3 ml of medium or balanced salt solution without phenol red and serum. then, a reconstituted MTT vial was added in an amount equal to 10% of the culture medium volume. Cultures were incubated for 2–4 h depending on the cell type and maximum cell density and removed from the incubator and the formazan crystals were dissolved via the addition of an amount of MTT solubilisation solution (M-8910) equal to the original culture medium volume. ROBONIK P2000 spectrophotometer at a wavelength of 570 nm was used to measure the colour intensity spectrophotometrically. The survival curve of both T-24 and PC-3 cells was obtained by plotting the percentage of surviving cells against the drug after each compound. The IC50 value for each test compound and the reference drug doxorubicin was calculated.
In this study, all the newly synthesised CP derivatives were subjected to anticancer activity evaluation against bladder (T-24) and prostate cancer (PC-3) cell lines. The compounds were evaluated for their activity using 5 doses determinations (100 μg/ml, 25 μg/ml, 6.25 μg/ml, 1.60 μg/ml, and 0.39 μg/ml). Their half-maximal inhibitory concentration (IC50) values were measured. Doxorubicin was chosen as a reference anticancer drug[65].

Row | IC50 [2] | inhibition at 0.1 µM [2] | inhibition at 1 µM [2] | inhibition at 10 µM [2] | inhibition at 100 µM [2] | IC50 [4] | SMILES | increase in level of active caspase-3 compared to the control [1] | Caspase-3 conc. (pg/ml* ± SD) [1] | phase of cell cycle arrest [3] | increase in the percentage of cells at pre-G1 compared to the control ([3]; T-24 cells, at IC50, 24 h) | increase in the percentage of cells in the S phase compared to the control ([3]; T-24 cells, at IC50, 24 h)
1 | 0.74 ± 0.04 µM | 32.5% | 50.3% | 77.4% | 91.6% | 11 ± 0.56 µM | O=C(CN1CCN(c2cc3c(cc2F)c(=O)c(C(=O)O)cn3C2CC2)CC1)NN=C1C(=O)Nc2ccccc21 [Compound 8a, 1-Cyclopropyl-6-fluoro-4-oxo-7-(4-(2-oxo-2-(2-(2-oxoindolin-3-ylidene)hydrazinyl)ethyl)piperazin-1-yl)-1,4-dihydroquinoline-3-carboxylic acid] | 7.6 fold | 527.6 ± 8.39 pg/mL | S phase | 20.1 fold | 1.11 fold
2 | 0.92 ± 0.05 µM | 28% | 51.9% | 76.3% | 87.4% | 92.2 ± 4.69 µM | O=C1CC(=O)N(C(=O)CN2CCN(c3cc4c(cc3F)c(=O)c(C(=O)O)cn4C3CC3)CC2)N1 [Compound 6, 1-cyclopropyl-7-(4-(2-(3,5-dioxopyrazolidin-1-yl)-2-oxoethyl)piperazin-1-yl)-6-fluoro-4-oxo-1,4-dihydroquinoline-3-carboxylic acid] | 5.23 fold | 362.9 ± 8.58 pg/mL | S phase | – | 1.4 fold
